From patent US10457687B2, “Aminoacid derivatives, a process for their preparation and pharmaceutical compositions containing them” (LES LABORATOIRES SERVIER, priority 2015, dated 2019)

Tests used:
Mcl-1 protein = Mcl-1 protein (Homo sapiens, UniProt Q07820); experiment: Inhibition of Mcl-1 by the fluorescence polarisation technique (Method 1 or Method 2); format: binding; settings: fluorescence polarisation, Fluorescein labelled ligand; Method 1 (not underlined) or Method 2 (underlined); read-out: IC50 (μM) Mcl-1 FP
Mcl-1 protein, sequence (Q07820 whole entry): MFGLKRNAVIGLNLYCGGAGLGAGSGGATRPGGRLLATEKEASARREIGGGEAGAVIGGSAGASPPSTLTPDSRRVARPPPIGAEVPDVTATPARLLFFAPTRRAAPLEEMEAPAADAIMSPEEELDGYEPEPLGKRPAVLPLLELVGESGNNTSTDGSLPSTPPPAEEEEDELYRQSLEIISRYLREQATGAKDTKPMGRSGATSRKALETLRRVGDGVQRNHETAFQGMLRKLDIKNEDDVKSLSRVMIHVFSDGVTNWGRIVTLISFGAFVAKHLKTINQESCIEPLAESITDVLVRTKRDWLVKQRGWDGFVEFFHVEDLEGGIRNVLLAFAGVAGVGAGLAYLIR
How it was run: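 Binding measured by FP, with Mcl-1 protein and fluorescein-labelled ligand mixed with compounds in an 11-point series at 5% final DMSO. Method 2 used 10 nM each of protein and ligand in phosphate buffer (20 mM Na2HPO4, 1 mM EDTA, 50 mM NaCl, pH 7.4); Method 1 used 5 nM protein, 1 nM ligand in HEPES buffer (10 mM HEPES, 150 mM NaCl, 0.05% Tween 20, pH 7.4).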

[1] = tested on: H929 multiple myeloma tumour line; experiment: In vitro cytotoxicity, MTT assay, 48 hours; format: cell-based; settings: H929 cells, 48 hours exposure, cell viability
Procedure: The cytotoxicity studies were carried out on the H929 multiple myeloma tumour line.
The cells are distributed onto microplates and exposed to the test compounds for 48 hours.

[2] = tested on: cleaved form of PARP in AMO-1 tumour cells; experiment: Quantification of the cleaved form of PARP in vivo (AMO-1 xenograft, MSD ELISA); set-up: species or system mice (SCID strain); settings: activation factor: cleaved PARP in treated mice / control mice, SCID mice, intraveinous or oral routes
Procedure: The ability of the compounds of the invention to induce apoptosis, by measuring cleaved PARP levels, is evaluated in a xenograft model of AMO-1 multiple myeloma cells. 1·10^7 AMO-1 cells are grafted sub-cutaneously into immunosuppressed mice (SCID strain). 12 to 14 days after the graft, the animals are treated by intraveinous or oral routes with the various compounds. After treatment, the tumour masses are recovered and lysed, and the cleaved form of PARP is quantified in the tumour lysates.
The quantification is carried out using the “Meso Scale Discovery (MSD) ELISA platform” test, which specifically assays the cleaved form of PARP. It is expressed in the form of an activation factor corresponding to the ratio between the quantity of cleaved PARP in the treated mice divided by the quantity of cleaved PARP in the control mice.

Row | Compound | IC50 (Mcl-1 protein) [µM] | IC50 ([1]; Homo sapiens, NCI-H929) [nM] | PARP fold [2] | IC50 [1] [nM]
1 | CC#Cc1sc2ncnc(NC(Cc3ccccc3OCc3ccnc(OCC(F)(F)F)n3)C(=O)O)c2c1-c1ccc(OCCN2CCN(C)CC2)c(Cl)c1C [Example 44, N-[(5Sa)-5-{3-chloro-2-methyl-4-[2-(4-methylpiperazin-1-yl)ethoxy]phenyl}-6-(prop-1-yn-1-yl)thieno[2,3-d]pyrimidin-4-yl]-2-{[2-(2,2,2-trifluoroethoxy)pyrimidin-4-yl]methoxy}-D-phenylalanine] | 0.007 | 3.44 | 85.8 | 
2 | CC#Cc1sc2ncnc(NC(Cc3ccccc3OCc3ccnc(N4CCOCC4)n3)C(=O)O)c2c1-c1ccc(OCCN2CCN(C)CC2)c(Cl)c1C [Example 43, N-[(5Sa)-5-{3-chloro-2-methyl-4-[2-(4-methylpiperazin-1-yl)ethoxy]phenyl}-6-(prop-1-yn-1-yl)thieno[2,3-d]pyrimidin-4-yl]-2-{[2-(morpholin-4-yl)pyrimidin-4-yl]methoxy}-D-phenylalanine] | 0.006 | 12.5 | 114.6 | 
3 | CC#Cc1sc2ncnc(NC(Cc3ccccc3OCc3ccnc(-c4ccccc4OC)n3)C(=O)OCC)c2c1-c1ccc(OCCN2CCN(C)CC2)c(Cl)c1C [Example 258, ethyl N-[(5Sa)-5-{3-chloro-2-methyl-4-[2-(4-methylpiperazin-1-yl)ethoxy]phenyl}-6-(prop-1-yn-1-yl)thieno[2,3-d]pyrimidin-4-yl]-2-{[2-(2-methoxyphenyl)pyrimidin-4-yl]methoxy}-D-phenylalaninate] | 1.07 | 428 | 132.3 | 
4 | CCOC(=O)C(Cc1ccccc1OCc1ccnc(-c2ccccc2OC)n1)Nc1ncnc2sc(-c3ccc(F)cc3)c(-c3ccc(OCCN4CCN(C)CC4)c(Cl)c3C)c12 [Example 256, ethyl N-[(5Sa)-5-{3-chloro-2-methyl-4-[2-(4-methylpiperazin-1-yl)ethoxy]phenyl}-6-(4-fluorophenyl)thieno[2,3-d]pyrimidin-4-yl]-2-{[2-(2-methoxyphenyl)pyrimidin-4-yl]methoxy}-D-phenylalaninate] | 1.61 | > 600 | 99.5 | 
5 | CCOc1nccc(COc2ccccc2CC(Nc2ncnc3sc(-c4ccc(F)o4)c(-c4ccc(OCCN5CCN(C)CC5)c(Cl)c4C)c23)C(=O)O)n1 [Example 22, N-[(5Sa)-5-{3-chloro-2-methyl-4-[2-(4-methylpiperazin-1-yl)ethoxy]phenyl}-6-(5-fluorofuran-2-yl)thieno[2,3-d]pyrimidin-4-yl]-2-[(2-ethoxypyrimidin-4-yl)methoxy]-D-phenylalanine] | 0.002 | 8.59 | 222.2 | 
6 | CC#Cc1sc2ncnc(NC(Cc3ccccc3OCc3ccnc(-c4ccccc4OC)n3)C(=O)OCC)c2c1-c1ccc(OCCN(C)C)c(Cl)c1C [Example 259, ethyl N-[(5Sa)-5-{3-chloro-4-[2-(dimethylamino)ethoxy]-2-methylphenyl}-6-(prop-1-yn-1-yl)thieno[2,3-d]pyrimidin-4-yl]-2-{[2-(2-methoxyphenyl)pyrimidin-4-yl]methoxy}-D-phenylalaninate] | 1.35 | > 600 | 134.4 | 
7 | CC#Cc1sc2ncnc(N[C@H](Cc3ccccc3OCc3ccnc(-c4ccccc4OC)n3)C(=O)O)c2c1-c1ccc(OCCN(C)C)c(Cl)c1C [Example 49, N-[(5Sa)-5-{3-chloro-4-[2-(dimethylamino)ethoxy]-2-methylphenyl}-6-(prop-1-yn-1-yl)thieno[2,3-d]pyrimidin-4-yl]-2-{[2-(2-methoxyphenyl)pyrimidin-4-yl]methoxy}-D-phenylalanine] | 0.003 |  | 138.8 | 4.12
8 | COCCOc1ccccc1-c1nccc(COc2ccccc2CC(Nc2ncnc3sc(-c4ccc(F)cc4)c(-c4ccc(OCCN(C)C)c(Cl)c4C)c23)C(=O)O)n1 [Example 51, N-[(5Sa)-5-{3-chloro-4-[2-(dimethylamino)ethoxy]-2-methylphenyl}-6-(4-fluorophenyl)thieno[2,3-d]pyrimidin-4-yl]-2-({2-[2-(2-methoxyethoxy)phenyl]pyrimidin-4-yl}methoxy)-D-phenylalanine] | 0.005 | 23.3 | 52.2 | 
9 | CC#Cc1sc2ncnc(NC(Cc3ccccc3OCc3ccnn3C(C)(C)C)C(=O)O)c2c1-c1ccc(OCCN2CCN(C)CC2)c(Cl)c1C [Example 40, 2-[(1-tert-butyl-1H-pyrazol-5-yl)methoxy]-N-[(5Sa)-5-{3-chloro-2-methyl-4-[2-(4-methylpiperazin-1-yl)ethoxy]phenyl}-6-(prop-1-yn-1-yl)thieno[2,3-d]pyrimidin-4-yl]-D-phenylalanine] | 0.006 | 32.8 | 114.3 | 
